What was measured:
Type in all cases: cell-based
CCRF-CEM = experiment: NCI screen, growth of human tumor cells: Leukemia CCRF-CEM; conditions: for percent of growth of human tumor cells: CCRF-CEM (Leukemia); for % Growth: CCRF-CEM
Protocol: (§1) In the NCI screening process, each compound was tested and described by a minimum of 60 data points. The test data include, but are not limited to the type of cancer, the molar concentration used in the screen, and the percent growth of the cancer. In some cases, NMR and elemental analysis were used for structural assignment.

K562 = experiment: NCI screen, growth of human tumor cells: Leukemia K562
Protocol: as §1

MOLT-4 = experiment: NCI screen, growth of human tumor cells: Leukemia MOLT-4; conditions: for percent of growth of human tumor cells: MOLT-4 (Leukemia), 10^−4 molar
Protocol: as §1

NCI-H460 = experiment: NCI screen, growth of human tumor cells: Non-Small Cell Lung NCI-H460; conditions: NCI-H460 (Non-Small Cell Lung), 10^−4 molar
Protocol: as §1

SF-268 = experiment: NCI screen, growth of human tumor cells: CNS Cancer SF-268; conditions: SF-268 (CNS Cancer), 10^−4 molar
Protocol: as §1

SNB-19 = experiment: NCI screen, growth of human tumor cells: CNS Cancer SNB-19
Protocol: as §1

SF-539 = experiment: NCI screen, growth of human tumor cells: CNS Cancer SF-539; conditions: for percent of growth of human tumor cells: SF-539 (CNS Cancer), 10^−4 molar
Protocol: as §1

SNB-75 = experiment: NCI screen, growth of human tumor cells: CNS Cancer SNB-75; conditions: SNB-75 (CNS Cancer), 10^−4 molar
Protocol: as §1

U-251 = experiment: NCI screen, growth of human tumor cells: CNS Cancer U-251; conditions: U-251 (CNS Cancer), 10^−4 molar
Protocol: as §1

UACC-62 = experiment: NCI screen, growth of human tumor cells: Melanoma UACC-62; conditions: UACC-62 (Melanoma), 10^−4 molar
Protocol: as §1

ACHN = experiment: NCI screen, growth of human tumor cells: Renal Cancer ACHN; conditions: ACHN (Renal Cancer), 10^−4 molar
Protocol: as §1

CAKI-1 = experiment: NCI screen, growth of human tumor cells: Renal Cancer CAKI-1; conditions: CAKI-1 (Renal Cancer), 10^−4 molar
Protocol: as §1

human cancer cells = experiment: NCI screen summary over the cancers tested (negative growth of human cancer cells); conditions: 10^−4 M conc.; cancers with negative growth / cancers tested
Protocol: as §1
The derivatives in the tables are grouped using the same category as in the tables 1-6.

RPMI-8226 = experiment: NCI screen, growth of human tumor cells: Leukemia RPMI-8226; conditions: RPMI-8226 (Leukemia), 10^−4 molar
Protocol: as §1

NCI-H226 = experiment: NCI screen, growth of human tumor cells: Non-Small Cell Lung NCI-H226; conditions: NCI-H226 (Non-Small Cell Lung), 10^−4 molar
Protocol: as §1

SK-MEL-2 = experiment: NCI screen, growth of human tumor cells: Melanoma SK-MEL-2; conditions: SK-MEL-2 (Melanoma), 10^−4 molar
Protocol: as §1

OVCAR-3 = experiment: NCI screen, growth of human tumor cells: Ovarian Cancer OVCAR-3; conditions: OVCAR-3 (Ovarian Cancer), 10^−4 molar
Protocol: as §1

RXF-393 = experiment: NCI screen, growth of human tumor cells: Renal Cancer RXF-393
Protocol: as §1

SR = experiment: NCI screen, growth of human tumor cells: Leukemia SR; conditions: for % Growth: SR
Protocol: as §1

HOP-18 = experiment: NCI screen, growth of human tumor cells: Non-Small Cell Lung HOP-18
Protocol: as §1

HOP-92 = experiment: NCI screen, growth of human tumor cells: Non-Small Cell Lung HOP-92
Protocol: as §1

NCI-H522 = experiment: NCI screen, growth of human tumor cells: Non-Small Cell Lung NCI-H522
Protocol: as §1

HCT-15 = experiment: NCI screen, growth of human tumor cells: Colon Cancer HCT-15; conditions: HCT-15 (Colon Cancer), 10^−4 molar
Protocol: as §1

HCC-2998 = experiment: NCI screen, growth of human tumor cells: HCC-2998 (listed under Non-Small Cell Lung); conditions: HCC-2998 (under Non-Small Cell Lung), 10^−4 molar
Protocol: as §1

786-0 = experiment: NCI screen, growth of human tumor cells: Renal Cancer 786-0; conditions: 786-0 (Renal Cancer), 10^−4 molar
Protocol: as §1

MALME-3M = experiment: NCI screen, growth of human tumor cells: Melanoma MALME-3M; conditions: MALME-3M, 10^−4 molar
Protocol: as §1

SK-MEL-5 = experiment: NCI screen, growth of human tumor cells: Melanoma SK-MEL-5; conditions: SK-MEL-5, 10^−4 molar
Protocol: as §1

SF-295 = experiment: NCI screen, growth of human tumor cells: CNS Cancer SF-295; conditions: SF-295 (CNS Cancer), 10^−4 molar
Protocol: as §1

## CC1S(=O)(=O)OCCOS1(=O)=O [NSC 372239]
CCRF-CEM; 10^−4 molar
  percent of growth of human tumor cells: −6%
K562; K562 (Leukemia), 10^−4 molar
  percent of growth of human tumor cells: 12%
MOLT-4
  percent of growth of human tumor cells: 12%
NCI-H460
  percent of growth of human tumor cells: 2%
SF-268
  percent of growth of human tumor cells: 29%
SNB-19; SNB-19 (CNS Cancer), 10^−4 molar
  percent of growth of human tumor cells: 26%
SF-539
  percent of growth of human tumor cells: 28%
SNB-75
  percent of growth of human tumor cells: 28%
U-251
  percent of growth of human tumor cells: 16%
UACC-62
  percent of growth of human tumor cells: −14%
ACHN
  percent of growth of human tumor cells: 20%
CAKI-1
  percent of growth of human tumor cells: 20%
Human cancer cells
  Percentage of cancers showing negative growth cancers tested: 2/12 = 17%

## O=S1(=O)OCCOS(=O)(=O)C1(Cl)Cl [NSC 648307]
CCRF-CEM; 10^−4 molar
  percent of growth of human tumor cells: 29%
RPMI-8226
  percent of growth of human tumor cells: 21%
NCI-H226
  percent of growth of human tumor cells: 23%
UACC-62
  percent of growth of human tumor cells: 7%
CAKI-1
  percent of growth of human tumor cells: 23%
Human cancer cells
  Percentage of cancers showing negative growth cancers tested: 10^−4 M conc. = 0/5 = 0%

## CN(C)C(=N)N=C(N)N.CS(C)=O.[Cl][Pt][Cl] [NSC 671543]
SK-MEL-2
  percent of growth of human tumor cells: 30%

## O=S(=O)([O-])OCCCC1S(=O)(=O)OCCOS1(=O)=O.[Na+] [NSC 674994, butane-1-[hydroxyhydrogensulfate]-4,4-[ethylenedisulfonate]]
SNB-19; SNB-19, 10^−4 molar
  % Growth: 36%
SNB-19; SNB-19, 10^−5 molar
  % Growth: 45%
SNB-19; SNB-19, 10^−6 molar
  % Growth: 47%
SNB-19; SNB-19, 10^−7 molar
  % Growth: 73%
SNB-19; SNB-19, 10^−8 molar
  % Growth: 67%
Human cancer cells
  Percentage of cancers showing negative growth cancers tested: 10^−4 M conc. = 0/1 = 0%

## C[Si](C)(OCCS(=O)(=O)O)OC(=C1S(=O)(=O)OCCOS1(=O)=O)c1cccc2ccccc12.[Na+] [NSC 679049]
OVCAR-3
  percent of growth of human tumor cells: 22%
RXF-393; RXF-393 (Renal Cancer), 10^−4 molar
  percent of growth of human tumor cells: 23%

## O=S1(=O)OCCOS(=O)(=O)C1=NNc1c(O)cc(S(=O)(=O)O)c2ccccc12 [NSC 686564]
CCRF-CEM; 10^−4 molar
  percent of growth of human tumor cells: 14%
MOLT-4
  percent of growth of human tumor cells: 23%
NCI-H460
  percent of growth of human tumor cells: 6%
SNB-75
  percent of growth of human tumor cells: 7%
ACHN
  percent of growth of human tumor cells: 26%
Human cancer cells
  Percentage of cancers showing negative growth cancers tested: 10^−4 M conc. = 0/5 = 0%

## COC=C1S(=O)(=O)OCCOS1(=O)=O [NSC 701691, ethylene 2-methoxy-1,1-ethylenedisulfonate]
CCRF-CEM; 10^−4 molar
  percent of growth of human tumor cells: 24%
SR; 10^−4 molar
  % Growth: 12%
SR; 10^−5 molar
  % Growth: 49%
HOP-18; HOP-18, 10^−4 molar
  % Growth: 44%
HOP-18; HOP-18, 10^−5 molar
  % Growth: 56%
HOP-18; HOP-18, 10^−6 molar
  % Growth: 92%
HOP-18; HOP-18, 10^−7 molar
  % Growth: 71%
HOP-18; HOP-18, 10^−8 molar
  % Growth: 58%
HOP-92; HOP-92, 10^−4 molar
  % Growth: 44%
HOP-92; HOP-92, 10^−5 molar
  % Growth: 56%
HOP-92; HOP-92, 10^−6 molar
  % Growth: 92%
HOP-92; HOP-92, 10^−7 molar
  % Growth: 71%
HOP-92; HOP-92, 10^−8 molar
  % Growth: 58%
NCI-H522; NCI-H522, 10^−4 molar
  % Growth: 66%
NCI-H522; NCI-H522, 10^−5 molar
  % Growth: 44%
NCI-H522; NCI-H522, 10^−6 molar
  % Growth: 67%
NCI-H522; NCI-H522, 10^−7 molar
  % Growth: 48%
NCI-H522; NCI-H522, 10^−8 molar
  % Growth: 73%
RXF-393; RXF-393, 10^−4 molar
  % Growth: 23%
RXF-393; RXF-393, 10^−5 molar
  % Growth: 55%
RXF-393; RXF-393, 10^−6 molar
  % Growth: 60%
RXF-393; RXF-393, 10^−7 molar
  % Growth: 68%
RXF-393; RXF-393, 10^−8 molar
  % Growth: 63%
Human cancer cells
  Percentage of cancers showing negative growth cancers tested: 10^−4 M conc. = 0/6 = 0%

## O=S1(=O)OCCOS(=O)(=O)C1c1nc(Cl)c(Cl)nc1Cl [NSC 720685]
MOLT-4
  percent of growth of human tumor cells: 24%
NCI-H522; NCI-H522 (Non-Small Cell Lung), 10^−4 molar
  percent of growth of human tumor cells: −22%
HCT-15
  percent of growth of human tumor cells: 7%
SF-539
  percent of growth of human tumor cells: 7%
Human cancer cells
  Percentage of cancers showing negative growth cancers tested: 10^−4 M conc. = 1/4 = 25%

## CC1(C)OCC(COC(=O)C(=O)OC(C(=O)OCC2COC(C)(C)O2)=C2S(=O)(=O)OCCOS2(=O)=O)O1 (stereo not drawn) [NSC 737275]
SR; SR (Leukemia), 10^−4 molar
  percent of growth of human tumor cells: 7%
HCC-2998
  percent of growth of human tumor cells: −12%
SF-268
  percent of growth of human tumor cells: 24%
SF-539
  percent of growth of human tumor cells: 15%
786-0
  percent of growth of human tumor cells: 17%
Human cancer cells
  Percentage of cancers showing negative growth cancers tested: 10^−4 M conc. = 1/5 = 20%

## COC(=O)c1cc(/C=C/C(=O)Cc2ccccc2)cn1S(=O)(=O)c1ccccc1 [compound 679534]
MALME-3M
  % Growth: −88%

## CC(=O)O[C@H]1CC[C@]2(C)C3C(=O)C[C@]4(C)[C@@H](C(C)=O)CC[C@@]4(C)[C@@H]3CC[C@H]2C1(C)C (stereo partly drawn) [compound 731278]
SK-MEL-5
  % Growth: −78%

## ethylene 2-hydroxy-2-solketalyl-ethylene-1,1-disulfonate [NSC 698123]
CCRF-CEM; 10^−4 molar
  % Growth: 32%
CCRF-CEM; 10^−5 molar
  % Growth: 58%
CCRF-CEM; 10^−6 molar
  % Growth: 57%
K562; K562, 10^−4 molar
  % Growth: 63%
K562; K562, 10^−5 molar
  % Growth: 41%
SF-539; SF-539, 10^−4 molar
  % Growth: 42%
SF-539; SF-539, 10^−5 molar
  % Growth: 50%
Human cancer cells
  Percentage of cancers showing negative growth cancers tested: 10^−4 M conc. = 0/3 = 0%

## ethylene (2-methyl-2-acetyl)-ethylene-1,1-disulfonate [NSC 698121]
CCRF-CEM; 10^−4 molar
  % Growth: 18%
CCRF-CEM; 10^−5 molar
  % Growth: 51%
CCRF-CEM; 10^−6 molar
  % Growth: 61%
CCRF-CEM; 10^−7 molar
  % Growth: 68%
K562; K562, 10^−4 molar
  % Growth: 54%
K562; K562, 10^−5 molar
  % Growth: 59%
K562; K562, 10^−6 molar
  % Growth: 54%
K562; K562, 10^−7 molar
  % Growth: 52%
MOLT-4; MOLT-4, 10^−4 molar
  % Growth: (85) %
MOLT-4; MOLT-4, 10^−5 molar
  % Growth: 46%
SR; 10^−4 molar
  % Growth: 60%
SR; 10^−5 molar
  % Growth: 31%
NCI-H460
  percent of growth of human tumor cells: 12%
SF-295
  percent of growth of human tumor cells: 24%
SF-539
  percent of growth of human tumor cells: 18%
ACHN
  percent of growth of human tumor cells: 29%
Human cancer cells
  Percentage of cancers showing negative growth cancers tested: 10^−4 M conc. = 1/8 = 0%

— patent US8124793B2, “Derivatives of ethylene methanedisulfonate as cancer chemotherapeutic agents” (priority 2007, dated 2012)
